≈ marks a conversion by molar mass, not a printed value. Where only a bound is given, the exact number is not on record here.

Here are results for 20 compounds from patent publication US9617216B2, “Antifungal oxodihydropyridinecarbohydrazide derivative” (Daewoong Pharmaceutical Co., Ltd., priority 2013, dated 2017).

Holding throughout (type): cell-based
Experiment [1] deals with Candida albicans. Put plainly: In vitro antifungal activity test (MIC), Candida albicans. The settings on record: concentration at which growth is inhibited by 80% vs negative control, 35° C., 24 hours, RPMI 1640, alama blue; for MIC80: Candida albicans. On the procedure:
(§1) The antifungal activities of the compounds of the present invention were evaluated using Candida albicans as yeast fungus, and Aspergillus fumigatus as a filamentous fungus. The above fungi used were all purchased from American Type Culture Collection (ATCC). The strains used in the experiment were inoculated into a Sabouraud dextrose agar medium, and then cultured at 35° C. for a sufficient period of time, e.g., 24 hours for Candida albicans, and about 7 days for Aspergillus fumigatus. As for Candida albicans, about 5 to 7 single colonies were taken from the cultured medium, sufficiently suspended in 1 ml of 0.85% sterile saline solution, and adjusted to have an optical density of 0.095 to 0.107 at 530 nm. A preparation of a strain diluent was diluted in Roswell park memorial institute (RPMI) 1640 medium at a 1:10 ratio, and the resultant was diluted again at a 1:100 ratio to obtain an inoculation preparation for Candida albicans with a concentration of 1.0×10^3 to 5.0×10^3 CFU/mL. As for Aspergillus fumigatus, the cultured Sabouraud dextrose agar was added with 1 mL of 0.2% Tween 20 diluted with 0.85% sterile saline solution, and then the plate was shaken to detach conidium from the plate. The solution collected from the plate surface was transferred into a sterile tube, and placed at room temperature for 5 minutes to deposit heavy substances. The resulting supernatant was transferred into the sterile tube, sufficiently suspended for about 15 seconds, and prepared a strain diluent with a concentration of 0.4×10^6 to 5.0×10^6 CFU/mL using a hemocytometer. The thus prepared strain diluent was diluted in RPMI 1640 medium at a 1:100 ratio to obtain an inoculation preparation for Aspergillus fumigatus. Candida albicans was cultured at 35° C. for 24 hours and Aspergillus fumigatus was cultured at 35° C. for 48 hours, and the concentrations, at which growth is inhibited by 80% or 50% compared to a negative control group, were determined using alama blue color developing reagent. All experiments were repeated twice for each concentration, and the results of antifungal activities (MIC80 MIC50 μg/mL) are shown in Tables 1 to 2.

In experiment [2] the test system is Candida albicans. Nature of the experiment: In vitro fungicidal activity test (MFC, minimum fungicidal concentration). The settings on record: minimum concentration with no fungal growth, Sabouraud dextrose agar plate, 35° C., 48 hours, naked eye; for MFC: Candida albicans. The procedure: As samples of fungicidal agents, 10 mM stock solutions were diluted 10-fold by adding with RPMI 1640 medium, followed by a 5-fold serial dilution, and used as the highest concentration for evaluation of antifungal activity (MIC). The samples with the highest concentration of the fungicidal agents were treated with a 2-fold serial dilution into 11 different concentrations, and the final concentrations were determined by mixing with the strains at a 1:1 ratio. In particular, the concentration of dimethylsulfoxide used as an excipient was made to a final 1% (VN). The evaluations of the fungicidal activity of Candida albicans were performed using a test plate already completed of antifungal activity, from the highest concentration of a given sample to the concentration right next to the concentration determined to be MIC. Test solutions at each concentration were pipetted about 5 times, all were collected (about a total of 225 μL), and added into a 12-well Sabouraud dextrose agar plate.

Experiment [3] concerns Aspergillus fumigatus. Nature of the experiment: In vitro antifungal activity test (MIC), Aspergillus fumigatus. The settings on record: concentration at which growth is inhibited by 50% vs negative control, 35° C., 48 hours, RPMI 1640, alama blue; for MIC50: Aspergillus fumigatus. The procedure:
as §1

As to `Cn1cc(C(=O)NNc2cccc(F)c2)ccc1=O` [Example 2, N′-(3-fluorophenyl)-1-methyl-6-oxo-1,6-dihydropyridine-3-carbohydrazide], in experiment [1], the MIC80 came out at 0.02 µg/mL (≈ 0.0766 µM). In experiment [2], this compound gave an MFC of 0.1 µg/mL (≈ 0.383 µM).

`Cn1cc(C(=O)NNc2ccc(F)cc2F)ccc1=O` [Example 11, N′-(2,4-difluorophenyl)-1-methyl-6-oxo-1,6-dihydropyridine-3-carbohydrazide] gave an MIC80 in experiment [1] of 0.03 µg/mL (≈ 0.107 µM). Moreover, the MIC50 in experiment [3] turned out to be 0.05 µg/mL (≈ 0.179 µM).

As for `Cn1cc(C(=O)NNc2cc(F)cc(F)c2)ccc1=O` [Example 13, N′-(3,5-difluorophenyl)-1-methyl-6-oxo-1,6-dihydropyridine-3-carbohydrazide], the MIC80 in experiment [1] amounted to 0.03 µg/mL (≈ 0.107 µM). The compound also came in with an MIC50 in experiment [3] of 0.44 µg/mL (≈ 1.58 µM). For the same compound, the minimal fungicidal concentration (MFC) in experiment [2] was 0.1 µg/mL (≈ 0.358 µM).

`Cn1cc(C(=O)NNc2ccc(Cl)cc2Cl)ccc1=O` [Example 15, N′-(2,4-dichlorophenyl)-1-methyl-6-oxo-1,6-dihydropyridine-3-carbohydrazide] returned an MIC80 in experiment [1] of 0.03 µg/mL (≈ 0.0961 µM). In experiment [3], the MIC50 turned out to be 1.95 µg/mL (≈ 6.25 µM).

As for `Cn1cc(C(=O)NNc2ccc(F)nc2)ccc1=O` [Example 18, N′-(6-fluoropyridine-3-yl)-1-methyl-6-oxo-1,6-dihydropyridine-3-carbohydrazide], in experiment [1], the MIC80 was found to be 0.03 µg/mL (≈ 0.114 µM). Moreover, the MIC50 in experiment [3] came out at 0.4 µg/mL (≈ 1.53 µM).

For `COc1ncc(NNC(=O)c2ccc(=O)n(C)c2)cc1F` [Example 21, N′-(5-fluoro-6-methoxypyridine-3-yl)-1-methyl-6-oxo-1,6-dihydropyridine-3-carbohydrazide], the MIC80 in experiment [1] was 0.03 µg/mL (≈ 0.103 µM). The same compound gave an MIC50 in experiment [3] of 0.5 µg/mL (≈ 1.71 µM). In experiment [2], this compound registered an MFC of 0.1 µg/mL (≈ 0.342 µM).

On to `Cn1cc(C(=O)NNc2cccc(F)c2)cc(Cl)c1=O` [Example 24, 5-chloro-N′-(3-fluorophenyl)-1-methyl-6-oxo-1,6-dihydropyridine-3-carbohydrazide], for which the MIC80 in experiment [1] was 0.06 µg/mL (≈ 0.203 µM). This compound also came in with an MIC50 in experiment [3] of 1.8 µg/mL (≈ 6.09 µM).

`Cn1cc(C(=O)NNc2cccc(Cl)c2)cc(Cl)c1=O` [Example 26, 5-chloro-N′-(3-chlorophenyl)-1-methyl-6-oxo-1,6-dihydropyridine-3-carbohydrazide]: the MIC80 in experiment [1] came to 0.06 µg/mL (≈ 0.192 µM). The compound further yielded an MIC50 in experiment [3] of 1 µg/mL (≈ 3.2 µM).

Turning to `O=C(NNc1cccc(F)c1)c1c(Cl)cc(=O)n2c1CCC2` [Example 33, 7-chloro-N′-(3-fluorophenyl)-5-oxo-1,2,3,5-tetrahydroindolizine-8-carbohydrazide], in experiment [1], the MIC80 came to 0.13 µg/mL (≈ 0.404 µM). Besides, the MIC50 in experiment [3] was found to be 0.5 µg/mL (≈ 1.55 µM).

In experiment [1], `O=C(NNc1ccc(F)cc1)c1c(Cl)cc(=O)n2c1CCC2` [Example 34, 7-chloro-N′-(4-fluorophenyl)-5-oxo-1,2,3,5-tetrahydroindolizine-8-carbohydrazide] registered an MIC80 of 0.25 µg/mL (≈ 0.777 µM). For the same compound, the MIC50 in experiment [3] amounted to 1 µg/mL (≈ 3.11 µM).

`COc1ncc(NNC(=O)c2cc(-c3ccc(F)cc3)c(=O)n(C)c2)cc1F` [Example 37, N′-(5-fluoro-6-methoxypyridine-3-yl)-5-(4-fluorophenyl)-1-methyl-6-oxo-1,6-dihydropyridine-3-carbohydrazide] came in with an MIC80 in experiment [1] of 0.04 µg/mL (≈ 0.104 µM). For the same compound, in experiment [3], the MIC50 was found to be 0.3 µg/mL (≈ 0.776 µM). Further, the MFC in experiment [2] amounted to 0.1 µg/mL (≈ 0.259 µM).

`COc1ncc(NNC(=O)c2cc(-c3ccc(Cl)cc3)c(=O)n(C)c2)cc1F` [Example 38, 5-(4-chlorophenyl)-N′-(5-fluoro-6-methoxypyridine-3-yl)-1-methyl-6-oxo-1,6-dihydropyridine-3-carbohydrazide] gave an MIC80 in experiment [1] of 0.02 µg/mL (≈ 0.0497 µM). This compound also came in with an MIC50 in experiment [3] of 0.3 µg/mL (≈ 0.745 µM). In experiment [2], the MFC was 0.1 µg/mL (≈ 0.248 µM).

The compound `COc1ncc(NNC(=O)c2cc(-c3ccc(C(F)(F)F)cc3)c(=O)n(C)c2)cc1F` [Example 39, N′-(5-fluoro-6-methoxypyridine-3-yl)-1-methyl-6-oxo-5-(4-(trifluoromethyl)phenyl)-1,6-dihydropyridine-3-carbohydrazide] had an MIC80 in experiment [1] of 0.04 µg/mL (≈ 0.0917 µM). Besides, in experiment [3], the MIC50 amounted to 0.7 µg/mL (≈ 1.6 µM). In addition, in experiment [2], the MFC is 0.2 µg/mL (≈ 0.458 µM).

The compound `COc1ncc(NNC(=O)c2cc(-c3ccc(C#N)cc3)c(=O)n(C)c2)cc1F` [Example 40, 5-(4-cyanophenyl)-N′-(5-fluoro-6-methoxypyridine-3-yl)-1-methyl-6-oxo-1,6-dihydropyridine-3-carbohydrazide] had an MIC80 in experiment [1] of 0.04 µg/mL (≈ 0.102 µM). Moreover, in experiment [2], the minimal fungicidal concentration (MFC) was found to be 0.2 µg/mL (≈ 0.508 µM).

As for `COc1ncc(NNC(=O)c2ccc(=O)n(-c3cccc(Cl)c3)c2)cc1F` [Example 48, 1-(3-chlorophenyl)-N′-(5-fluoro-6-methoxypyridine-3-yl)-6-oxo-1,6-dihydropyridine-3-carbohydrazide], the MIC80 in experiment [1] was 0.04 µg/mL (≈ 0.103 µM). For the same compound, the MIC50 in experiment [3] was 0.6 µg/mL (≈ 1.54 µM).

Turning to `O=C(NNc1ccc(F)cc1F)c1ccc(=O)n(Cc2cscn2)c1` [Example 49, N′-(2,4-difluorophenyl)-6-oxo-1-(thiazol-4-ylmethyl)-1,6-dihydropyridine-3-carbohydrazide], the MIC80 in experiment [1] is 0.28 µg/mL (≈ 0.773 µM). In experiment [3], this compound registered an MIC50 of 0.3 µg/mL (≈ 0.828 µM).

On to `O=C(NNc1cc(F)cc(F)c1)c1ccc(=O)n(Cc2ccc(C(F)(F)F)nc2)c1` [Example 53, N′-(3,5-difluorophenyl)-6-oxo-1-((6-(trifluoromethyl)pyridine-3-yl)methyl)-1,6-dihydropyridine-3-carbohydrazide], for which the MIC80 in experiment [1] stood at 0.04 µg/mL (≈ 0.0943 µM). Also, the MIC50 in experiment [3] worked out at 0.7 µg/mL (≈ 1.65 µM).

`O=C(NNc1ccc(F)cc1F)c1ccc(=O)n(Cc2ccc(C(F)(F)F)nc2)c1` [Example 54, N′-(2,4-difluorophenyl)-6-oxo-1-((6-(trifluoromethyl)pyridine-3-yl)methyl)-1,6-dihydropyridine-3-carbohydrazide] gave an MIC80 in experiment [1] of 0.08 µg/mL (≈ 0.189 µM). Also, the MIC50 in experiment [3] was 0.7 µg/mL (≈ 1.65 µM).

`CC[C@H](C)C[C@H](C)CCCCCCCCC(=O)N[C@H]1C[C@@H](O)[C@@H](NCCN)NC(=O)[C@@H]2[C@@H](O)CCN2C(=O)[C@H]([C@H](O)CCN)NC(=O)[C@H]([C@H](O)[C@@H](O)c2ccc(O)cc2)NC(=O)[C@@H]2C[C@@H](O)CN2C(=O)[C@H]([C@@H](C)O)NC1=O` [caspofungin, reference compound]: in experiment [1], the “Candida albicans MIC80” value was found to be 0.25 µg/mL. In experiment [3], the “Aspergillus fumigatus MIC50” value is 0.3 µg/mL. Further, in experiment [2], the “Candida albicans MFC” value worked out at 4 µg/mL.

Compound `OC(Cn1cncn1)(Cn1cncn1)c1ccc(F)cc1F` [fluconazole, reference compound] gave an MIC80 in experiment [1] of 0.25 µg/mL (≈ 0.816 µM). This compound also yielded an MIC50 in experiment [3] above 32 µg/mL. In addition, in experiment [2], the MFC was above 32 µg/mL.

As usually defined, the MIC80 is an inhibitory concentration at the 80% level, which refers to growth in some studies and to a panel of isolates in others. A low value points to greater potency. The term MFC denotes the lowest tested concentration that kills the fungus rather than only halting it. A high value points to weaker fungicidal potency. A word on the MIC50: it is the lowest concentration that inhibits either 50% of growth or 50% of the strains tested, depending on the study. A high value points to lower susceptibility.
